# Measured values reported in ChEMBL document CHEMBL4261615, “Design, synthesis, biological evaluation and cellular imaging of imidazo[4,5-b]pyridine derivatives as potent and selective TAM inhibitors” (Bioorg Med Chem, 2018).
# Active and inactive are the calls of the source. The rule behind the calls is not given here.
# Tests used:
# [1] = target: T1, Tyrosine-protein kinase Mer (Homo sapiens) (UniProt Q12866); assay: Inhibition of recombinant GST-tagged human Mer (578 to 872 residues) cytoplasmic domain expressed in Baculovirus system using poly (Glu-Ala-Tyr) peptide as substrate after 1.5 hrs by ELISA
# T1 sequence (whole entry): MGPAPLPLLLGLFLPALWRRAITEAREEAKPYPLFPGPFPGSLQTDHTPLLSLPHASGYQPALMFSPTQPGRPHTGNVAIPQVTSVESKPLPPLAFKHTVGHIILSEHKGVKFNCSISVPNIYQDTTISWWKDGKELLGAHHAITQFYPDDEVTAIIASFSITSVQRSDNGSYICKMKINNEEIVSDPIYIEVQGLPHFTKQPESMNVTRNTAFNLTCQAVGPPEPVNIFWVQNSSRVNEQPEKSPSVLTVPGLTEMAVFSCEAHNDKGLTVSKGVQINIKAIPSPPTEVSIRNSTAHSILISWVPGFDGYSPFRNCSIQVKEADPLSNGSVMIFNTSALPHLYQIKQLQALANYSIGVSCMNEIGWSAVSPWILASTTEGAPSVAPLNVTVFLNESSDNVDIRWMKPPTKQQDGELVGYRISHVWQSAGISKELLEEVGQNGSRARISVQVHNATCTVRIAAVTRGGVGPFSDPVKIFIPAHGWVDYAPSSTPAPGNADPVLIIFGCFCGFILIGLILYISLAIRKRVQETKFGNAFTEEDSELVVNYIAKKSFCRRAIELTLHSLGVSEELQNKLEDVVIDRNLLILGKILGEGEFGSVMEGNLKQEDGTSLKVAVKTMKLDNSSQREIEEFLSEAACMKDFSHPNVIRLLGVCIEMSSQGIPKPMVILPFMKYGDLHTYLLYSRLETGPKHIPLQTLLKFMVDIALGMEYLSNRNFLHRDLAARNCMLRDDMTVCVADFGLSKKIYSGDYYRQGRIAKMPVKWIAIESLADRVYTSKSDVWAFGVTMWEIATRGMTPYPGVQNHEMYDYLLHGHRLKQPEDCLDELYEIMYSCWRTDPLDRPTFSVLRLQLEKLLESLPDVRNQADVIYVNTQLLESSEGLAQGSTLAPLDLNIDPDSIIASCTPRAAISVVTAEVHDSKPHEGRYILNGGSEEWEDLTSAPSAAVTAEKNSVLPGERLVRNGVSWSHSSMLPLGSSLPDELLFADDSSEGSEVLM
# [2] = target: Tyrosine-protein kinase receptor UFO (Homo sapiens) (UniProt P30530); assay: Inhibition of recombinant His-tagged human Axl (473 to end residues) cytoplasmic domain expressed in insect system using poly (Glu-Ala-Tyr) peptide as substrate after 1.5 hrs by ELISA
# [3] = target: T2, Tyrosine-protein kinase receptor TYRO3 (Homo sapiens) (UniProt Q06418); assay: Inhibition of recombinant GST-tagged human Tyro3 (451 to 890 residues) cytoplasmic domain expressed in Baculovirus expression system using poly (Glu-Ala-Tyr) peptide as substrate after 1.5 hrs by ELISA
# T2 sequence (whole entry): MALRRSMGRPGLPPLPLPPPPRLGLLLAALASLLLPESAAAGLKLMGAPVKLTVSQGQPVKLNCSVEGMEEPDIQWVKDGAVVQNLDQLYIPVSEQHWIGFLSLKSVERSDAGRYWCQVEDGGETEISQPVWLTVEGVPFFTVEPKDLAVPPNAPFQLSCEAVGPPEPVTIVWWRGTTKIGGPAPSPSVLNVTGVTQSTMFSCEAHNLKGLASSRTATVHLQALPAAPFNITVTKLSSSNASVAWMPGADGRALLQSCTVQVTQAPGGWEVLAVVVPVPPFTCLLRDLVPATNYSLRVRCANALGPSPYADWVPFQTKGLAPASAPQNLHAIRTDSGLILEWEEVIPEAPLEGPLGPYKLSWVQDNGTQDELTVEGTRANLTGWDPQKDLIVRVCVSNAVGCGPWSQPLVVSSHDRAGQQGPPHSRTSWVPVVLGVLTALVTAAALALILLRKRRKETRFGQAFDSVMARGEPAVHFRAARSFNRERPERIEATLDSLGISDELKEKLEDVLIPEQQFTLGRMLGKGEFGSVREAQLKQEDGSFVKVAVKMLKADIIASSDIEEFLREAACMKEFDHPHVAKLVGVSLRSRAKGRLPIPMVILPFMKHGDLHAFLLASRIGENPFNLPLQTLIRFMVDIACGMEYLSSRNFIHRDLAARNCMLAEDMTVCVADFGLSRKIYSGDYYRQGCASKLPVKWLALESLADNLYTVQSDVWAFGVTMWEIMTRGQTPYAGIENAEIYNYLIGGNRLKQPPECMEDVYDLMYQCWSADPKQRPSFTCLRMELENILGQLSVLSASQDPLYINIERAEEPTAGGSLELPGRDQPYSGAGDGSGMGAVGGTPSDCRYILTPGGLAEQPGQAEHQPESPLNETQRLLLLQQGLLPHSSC
# RT-112 = assay: Antiproliferative activity against human RT112 cells after 72 hrs by CellTiter-Glo assay; format: functional, cell-based
# A549 = assay: Antiproliferative activity against human A549 cells after 72 hrs by CellTiter-Glo assay; format: functional, cell-based; settings: A549, 72 h
# [4] = (§1) Antiproliferative activity against human MGHU3 cells after 72 hrs by CellTiter-Glo assay; format: functional, cell-based
# Homo sapiens = organism: Homo sapiens; assay: as §1; format: functional, cell-based
# Sequence of Tyrosine-protein kinase receptor UFO (Homo sapiens) (P30530 whole entry, the tested form may be a part): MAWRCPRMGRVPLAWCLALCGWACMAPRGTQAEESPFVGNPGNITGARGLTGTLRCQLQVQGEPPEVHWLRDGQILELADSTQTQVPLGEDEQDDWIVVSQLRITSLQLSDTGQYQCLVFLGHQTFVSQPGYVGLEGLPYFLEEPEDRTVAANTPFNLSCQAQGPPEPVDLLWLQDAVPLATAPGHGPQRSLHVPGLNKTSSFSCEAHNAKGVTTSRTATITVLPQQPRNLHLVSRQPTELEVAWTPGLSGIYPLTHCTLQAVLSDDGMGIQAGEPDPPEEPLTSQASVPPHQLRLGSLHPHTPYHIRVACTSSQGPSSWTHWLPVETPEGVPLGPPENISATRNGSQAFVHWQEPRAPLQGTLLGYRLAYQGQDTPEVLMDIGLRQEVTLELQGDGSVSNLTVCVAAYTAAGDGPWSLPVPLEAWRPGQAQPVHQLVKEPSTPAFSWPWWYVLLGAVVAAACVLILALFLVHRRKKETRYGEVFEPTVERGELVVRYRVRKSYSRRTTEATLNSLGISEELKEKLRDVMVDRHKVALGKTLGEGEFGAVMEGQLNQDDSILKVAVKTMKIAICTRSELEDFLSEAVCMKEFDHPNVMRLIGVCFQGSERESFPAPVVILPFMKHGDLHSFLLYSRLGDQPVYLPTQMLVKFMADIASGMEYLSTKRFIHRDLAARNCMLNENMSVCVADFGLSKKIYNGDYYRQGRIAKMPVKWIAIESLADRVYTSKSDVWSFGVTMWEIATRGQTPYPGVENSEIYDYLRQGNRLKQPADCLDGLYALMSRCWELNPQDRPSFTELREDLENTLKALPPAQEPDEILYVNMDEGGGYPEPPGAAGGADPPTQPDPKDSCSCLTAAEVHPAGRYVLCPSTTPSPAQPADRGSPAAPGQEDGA
inhibition [1],inhibition [2],inhibition [3],IC50 (A549) [µM],Compound,"IC50 (RT-112; RT-112, 72 h) [µM]",IC50 [4] [µM],Activity (RT-112),Activity (Homo sapiens)
inactive,inactive,inactive,–,O=C(Nc1ccc(Oc2c(-c3ccccc3)cnc3[nH]cnc23)c(F)c1)c1cccn(-c2ccc(F)cc2)c1=O,–,–,–,–
–,–,–,2.5 to 5,COc1cc2/c(=N/c3ccc(Br)cc3F)nc[nH]c2cc1OCC1CCN(C)CC1 [VANDETANIB],2.5 to 5,2.5 to 5,–,–
inactive,inactive,inactive,–,CC(C)c1nc2c(Oc3ccc(NC(=O)c4cccn(-c5ccc(F)cc5)c4=O)cc3F)c(-c3ccc(N(C)C)cc3)cnc2[nH]1,–,–,–,–
inactive,inactive,inactive,–,CC(C)c1nc2c(Oc3ccc(NC(=O)c4cccn(-c5ccc(F)cc5)c4=O)cc3F)c(-c3ccc(O)cc3)cnc2[nH]1,–,–,–,–
inactive,inactive,inactive,–,CC(C)c1nc2c(Oc3ccc(NC(=O)c4cccn(-c5ccc(F)cc5)c4=O)cc3F)c(-c3ccncc3)cnc2[nH]1,–,–,–,–
inactive,inactive,inactive,–,CCc1nc2c(Oc3ccc(NC(=O)c4cccn(-c5ccc(F)cc5)c4=O)cc3F)c(-c3ccncc3)cnc2[nH]1,–,–,–,–
inactive,inactive,inactive,–,CCc1nc2c(Oc3ccc(NC(=O)c4cccn(-c5ccc(F)cc5)c4=O)cc3F)c(-c3ccoc3)cnc2[nH]1,–,–,–,–

# The next lines start with the molecule.
Compound,inhibition [1],inhibition [2],inhibition [3],IC50 (A549) [µM],"IC50 (RT-112; RT-112, 72 h) [µM]",IC50 [4] [µM],Activity (RT-112),Activity (Homo sapiens)
CC(C)c1nc2c(Oc3ccc(NC(=O)c4cccn(-c5ccc(F)cc5)c4=O)cc3F)c(-c3ccoc3)cnc2[nH]1,inactive,inactive,inactive,–,–,–,–,–
CC(C)c1nc2c(Oc3ccc(NC(=O)c4cccn(-c5ccc(F)cc5)c4=O)cc3F)c(-c3cccnc3)cnc2[nH]1,inactive,inactive,inactive,–,–,–,–,–
CCc1nc2c(Oc3ccc(NC(=O)c4cccn(-c5ccc(F)cc5)c4=O)cc3F)c(-c3ccc(N(C)C)cc3)cnc2[nH]1,inactive,inactive,inactive,–,–,–,–,–
CCOc1ccn(-c2ccc(F)cc2)c(=O)c1C(=O)Nc1ccc(Oc2ccnc(N)c2Cl)c(F)c1,–,–,–,–,–,–,Active,Active
CCc1nc2c(Oc3ccc(NC(=O)c4cccn(-c5ccc(F)cc5)c4=O)cc3F)c(-c3ccc(O)cc3)cnc2[nH]1,inactive,inactive,inactive,–,–,–,–,–
CCc1nc2c(Oc3ccc(NC(=O)c4cccn(-c5ccc(F)cc5)c4=O)cc3F)c(-c3cccnc3)cnc2[nH]1,inactive,inactive,inactive,–,–,–,–,–
COc1cc2nccc(Oc3ccc(NC(=O)C4(C(=O)Nc5ccc(F)cc5)CC4)cc3)c2cc1OC,–,–,–,–,–,–,Active,Active
